Source: patent US20110251379A1, “COMPOUNDS USEFUL FOR TREATING NEURODEGENERATIVE DISORDERS” (Satori Pharmaceuticals, Inc., priority 2010, published 2011)
pIC50: −log10 of the molar value. Read-outs that look alike come from different tables or passages of the source.

Assays:
Type in all cases: cell-based
[1] = system: Aβ-38; assay: MSD Human (6E10) Ab 3-PLEX elisa, conditioned media of 2B7 cells: Aβ-38; details: for pIC50: Aβ-38 (superscript a); for inhibition at 20 µM: Aβ-38, 20 μM
Experimental: (§1) Assays were conducted to determine the ability of a Compound of Formula I to modulate […], and Aβ-38.
(§2) Plates with capture antibodies were blocked for 1-2 hours at room temperature with 150 μL of the manufactures blocking reagent.
(§3) Conditioned Media: • Cultured 2B7 cells in 96 well plate with 250 uL of media per well until confluent; • Prepared serial dilutions of compounds in DMSO at 100× the final desired concentration; • Washed wells with 2B7 cells 1× with 250 uL of media; • Diluted DMSO stocks 1:100 into media: • Added 250 μL of media containing compounds (1% DMSO) to wells with 2B7 cells for 5 hours at 37° C.
(§4) Elisa Sample Prep: • Diluted conditioned media: 1 part media with 1% DMSO and 1 part blocking buffer; • 150 μL of the 250 μL of conditioned media were used.
(§5) […] CURVE SAMPLE PREP: Prepared per manufacturer's protocol (see above) • Seven point standard curve samples were prepared that contained Aβ-42, Aβ-40, and Aβ-38. The highest concentration of Aβ-42 and Aβ-3-38 was 3,000 pg/mL and the highest concentration of Aβ-40 was 10,000 pg/mL. Subsequent serial dilutions were 1:3 and the final composition of each sample was 1 part blocking buffer and 1 part cell medium containing 1% DMSO.
(§6) Overnight Sample Incubation: • Blocked plates are washed 5× with MSD wash buffer with a plate washer • 25 uL of detection antibody and blocker G reagent in MSD blocking solution is added • 25 uL of samples (1 part conditioned media containing 1% DMSO and 1 part MSD blocking buffer) are then added. • plates are incubated overnight at 4 degrees C. or 2 hours at room temp
(§7) Final Wash and Readout: • Wash wells 5× with MSD wash buffer • Added 150 μL 2×MSD read buffer • Read with MSD imager.
(§8) A-Beta peptide levels for each peptide are calculated from the standard curve using the MSD software provided with the MSD 2400 Imager. Percent vehicle values for each compound dosage were then calculated and fit to a 4 parameter curve generating IC50 values.

[2] = system: Aβ-40; assay: MSD Human (6E10) Ab 3-PLEX elisa, conditioned media of 2B7 cells: Aβ-40; details: for pIC50: Aβ-40 (superscript b)
Experimental: as §1, §2, §3, §4, §5, §6, §7, §8

[3] = system: Aβ-42; assay: MSD Human (6E10) Ab 3-PLEX elisa, conditioned media of 2B7 cells: Aβ-42; details: for pIC50: Aβ-42 (superscript c)
Experimental: as §1, §2, §3, §4, §5, §6, §7, §8

[4] = Homo sapiens, read-out: 50% reduction value
[5] = Homo sapiens, read-out: IC50 range

SMILES | pIC50 [1, 4] | pIC50 [2, 4] | pIC50 [3, 4] | pIC50 [3, 5] | pIC50 [1, 5] | pIC50 [2, 5] | further results
CCO[C@@H](C1C[C@@H](C)[C@H]2C(O1)[C@H](O)[C@@]1(C)C3CC[C@H]4C(C)(C)C(OC(=O)N5CC[C@@H](C(=O)O)C5)CC[C@@]45C[C@@]35CC[C@]21C)C(C)(C)O (stereo partly drawn) | 5.00 to 6.00 | < 5.00 | > 6.00 | > 6.00 |  |  | 
CC(=O)N(Cc1ccccn1)CC1CC(C)C2C(O1)C(O)C1(C)C3CCC4C(C)(C)C(O)CCC45CC35CCC21C (stereo not drawn) [drawing 1212] |  |  |  |  |  |  | pIC50 ([1]; read-out: 50% reduction value): < 5.00; pIC50 ([2]; read-out: 50% reduction value): < 5.00; pIC50 ([3]; read-out: 50% reduction value): < 5.00
CC(C)[C@@H](OC(=O)N1CCC1)C1C[C@@H](C)[C@H]2C(O1)[C@H](O)[C@@]1(C)C3CC[C@H]4C(C)(C)C(OC(=O)N5CCn6cnnc6C5)CC[C@@]45C[C@@]35CC[C@]21C (stereo partly drawn) | > 6.00 | < 5.00 | > 6.00 |  |  |  | 
C[C@@H]1CC(COC(N)=O)OC2[C@H]1[C@@]1(C)CC[C@@]34C[C@@]35CC[C@H](O[C@H]3CN(C(=O)CC6CC6)CCO3)C(C)(C)[C@@H]5CCC4[C@]1(C)[C@H]2O (stereo partly drawn) |  |  |  | 5.00 to 6.00 | > 6.00 | < 5.00 | 
CNC(=O)OC1CC[C@]23C[C@]24CC[C@]2(C)[C@@H]5C(OC([C@H](OC(=O)N6CCC6)C(C)C)C[C@H]5C)[C@H](O)[C@@]2(C)C4CC[C@H]3C1(C)C (stereo partly drawn) | > 6.00 | 5.00 to 6.00 | > 6.00 | > 6.00 | > 6.00 | 5.00 to 6.00 | 
CC1CC(C(=O)C(C)(C)O)OC2C1C1(C)CCC34CC35CCC(O)C(C)(C)C5CCC4C1(C)C2O (stereo not drawn) [drawing 1218] |  |  |  |  |  |  | pIC50 ([1]; read-out: 50% reduction value): 5.00 to 6.00; % Inh. (range) ([2]; Aβ-40, 20 μM): E (% inhibition of 25-75%); % Inh. (range) ([3]; Aβ-42, 20 μM): F (% inhibition of <25%)
CC1CC(C(OC(=O)CC2CC2)C(C)(C)O)OC2C1C1(C)CCC34CC35CCC(OC3CN(C6COC6)CCO3)C(C)(C)C5CCC4C1(C)C2O (stereo not drawn) |  |  |  |  |  |  | pIC50 ([1]; read-out: 50% reduction value): > 6.00; pIC50 ([1]; read-out: IC50 range): > 6.00; pIC50 ([2]; read-out: 50% reduction value): 5.00 to 6.00; pIC50 ([2]; read-out: IC50 range): 5.00 to 6.00; pIC50 ([3]; read-out: 50% reduction value): > 6.00; pIC50 ([3]; read-out: IC50 range): > 6.00
CNC(=O)OCC1C[C@@H](C)[C@H]2C(O1)[C@H](O)[C@@]1(C)C3CC[C@H]4C(C)(C)[C@@H](O)CC[C@@]45C[C@@]35CC[C@]21C (stereo partly drawn) | 5.00 to 6.00 |  | 5.00 to 6.00 |  |  |  | inhibition at 20 µM ([1]; Homo sapiens): 25 to 75%; inhibition at 20 µM ([2]; Homo sapiens, Aβ-40, 20 μM): 25 to 75%
C=C(C)CO[C@@H](C1C[C@@H](C)[C@H]2C(O1)[C@H](O)[C@@]1(C)C3CC[C@H]4C(C)(C)C(OC(=O)NC5CNC5)CC[C@@]45C[C@@]35CC[C@]21C)C(C)(C)O (stereo partly drawn) | > 6.00 | 5.00 to 6.00 | > 6.00 | > 6.00 |  | < 5.00 | 
C[C@@H]1CC(COc2ncccn2)OC2C1[C@@]1(C)CC[C@@]34C[C@@]35CC[C@H](O[C@H]3CN(C6COC6)CCO3)C(C)(C)[C@@H]5CCC4[C@]1(C)[C@H]2O (stereo partly drawn) | 5.00 to 6.00 | 5.00 to 6.00 | 5.00 to 6.00 | 5.00 to 6.00 | 5.00 to 6.00 | 5.00 to 6.00 | 
CC(=O)OC(C(C)C)C1C[C@@H](C)[C@H]2C(O1)[C@H](O)[C@@]1(C)C3CC[C@H]4C(C)(C)[C@@H](O[C@H]5CNCCO5)CC[C@@]45C[C@@]35CC[C@]21C (stereo partly drawn) | > 6.00 | 5.00 to 6.00 | > 6.00 | > 6.00 | > 6.00 | 5.00 to 6.00 | 
CCO[C@@H](C1C[C@@H](C)[C@H]2C(O1)[C@H](O)[C@@]1(C)C3CC[C@H]4C(C)(C)C(OC5CN(Cc6ccccc6)CCO5)CC[C@@]45C[C@@]35CC[C@]21C)C(C)(C)O (stereo partly drawn) [drawing 1282] | 5.00 to 6.00 | 5.00 to 6.00 | 5.00 to 6.00 | 5.00 to 6.00 | 5.00 to 6.00 |  | 
COC(=O)OCC1C[C@@H](C)[C@H]2C(O1)[C@H](O)[C@@]1(C)C3CC[C@H]4C(C)(C)[C@@H](O)CC[C@@]45C[C@@]35CC[C@]21C (stereo partly drawn) |  |  |  |  |  |  | inhibition at 20 µM ([1]; Homo sapiens): 25 to 75%; inhibition at 20 µM ([2]; Homo sapiens, Aβ-40, 20 μM): 25 to 75%; inhibition at 20 µM ([3]; Homo sapiens, Aβ-42, 20 μM): 25 to 75%
